From ChEMBL document CHEMBL5465560, “Selectivity Literature for EUbOPEN Chemogenomic Library” (2024) come the findings set out here.

The subject of assay [1] is Tyrosine-protein kinase ABL1 (Homo sapiens), P00519 [M351T]. Put plainly: (§1) Selectivity interaction (LanthaScreen Eu Kinase Binding Assay) EUB0001632a ABL1. Conditions: at 10 µM. In general terms: TR-FRET usually uses a lanthanide donor and a delayed reading to cut background.
Assay [2] relates to Tyrosine-protein kinase ABL1 (Homo sapiens), P00519 [H396P]. Described as §1. Conditions: at 10 µM.
The subject of assay [3] is Tyrosine-protein kinase ABL1 (Homo sapiens), P00519 [Q252H]. The assay is described as §1. To be noted: at 10 µM.
Assay [4] concerns the target Mitogen-activated protein kinase kinase kinase 21 (Homo sapiens) (UniProt Q5TCX8). Put plainly: Selectivity interaction (LanthaScreen Eu Kinase Binding Assay) EUB0001632a MAP3K21. Conditions: at 10 µM.
Assay [5] has as its target Casein kinase II subunit alpha (Homo sapiens, UniProt P68400). Put plainly: Selectivity interaction (Kinase panel (KiNativ target engagement assay in Jurkat cells)) EUB0001635a CSNK2A1. To be noted: Selectivity number of off-targets 0.0, Selectivity number of targets 233.0, Source Knowledge https://www.sciencedirect.com/science/article/pii/S2451945619300674?via%3Dihub, at 1 µM. It counts as cell-based.

The target in assay [6] is Mitotic checkpoint serine/threonine-protein kinase BUB1 (Homo sapiens, UniProt O43683). As to the kind of experiment: Selectivity interaction (KinomeScan (DiscoverX)) EUB0000607a BUB1. To be noted: at 10 µM.
Assay [7] deals with Serine/threonine-protein kinase MRCK alpha (Homo sapiens) (UniProt Q5VT25). As to the kind of experiment: Selectivity interaction (KinomeScan (DiscoverX)) EUB0000607a CDC42BPA. Conditions: at 10 µM.
Assay [8] addresses Tyrosine-protein kinase JAK1 (Homo sapiens, UniProt P23458). Put plainly: Selectivity interaction (SelectScreen profiling (Invitrogen)) EUB0000607a JAK1. To be noted: at 2 µM.
Assay [9] has as its target Cyclin-dependent kinase 17 (Homo sapiens) (UniProt Q00537). To be noted: at 10 µM.
Assay [10] has as its target Ribosomal protein S6 kinase alpha-1 (Homo sapiens, UniProt Q15418). As to the kind of experiment: Selectivity interaction (KinomeScan (DiscoverX)) EUB0000229b RPS6KA1. Conditions: at 10 µM.
Assay [11] concerns the target STE20-like serine/threonine-protein kinase (Homo sapiens, UniProt Q9H2G2). As to the kind of experiment: Selectivity interaction (KinomeScan (DiscoverX)) EUB0001079a SLK. To be noted: at 1 µM.
Assay [12] has as its target Serine/threonine-protein kinase 10 (Homo sapiens) (UniProt O94804). As to the kind of experiment: Selectivity interaction (ActivX KiNativ screen (ex vivo kinase selectivity in human PBMCs)) EUB0001619a STK10. It counts as cell-based. To be noted: PBMC, at 1 µM.
Assay [13] has as its target Ribosomal protein S6 kinase alpha-3 (Homo sapiens, UniProt P51812). Put plainly: Selectivity interaction (Kinase panel (literature)) EUB0001199aCl RPS6KA3. Conditions: at 1 µM.
For assay [14], the target named is Cyclin-dependent kinase 18 (Homo sapiens) (UniProt Q07002). Put plainly: Selectivity interaction (ActivX KiNativ screen (kinase selectivity in THP-1 cell lysates)) EUB0000639a CDK18. Conditions: lysate, at 1 µM. It is filed as subcellular.
Assay [15] concerns the target Receptor tyrosine-protein kinase erbB-4 (Homo sapiens, UniProt Q15303). As to the kind of experiment: Selectivity interaction (Millipore kinase profiler) EUB0000124b ERBB4. To be noted: at 10 µM.
Assay [16] addresses T1, Myosin light chain kinase (Homo sapiens) (UniProt Q32MK0).
T1 sequence (whole entry): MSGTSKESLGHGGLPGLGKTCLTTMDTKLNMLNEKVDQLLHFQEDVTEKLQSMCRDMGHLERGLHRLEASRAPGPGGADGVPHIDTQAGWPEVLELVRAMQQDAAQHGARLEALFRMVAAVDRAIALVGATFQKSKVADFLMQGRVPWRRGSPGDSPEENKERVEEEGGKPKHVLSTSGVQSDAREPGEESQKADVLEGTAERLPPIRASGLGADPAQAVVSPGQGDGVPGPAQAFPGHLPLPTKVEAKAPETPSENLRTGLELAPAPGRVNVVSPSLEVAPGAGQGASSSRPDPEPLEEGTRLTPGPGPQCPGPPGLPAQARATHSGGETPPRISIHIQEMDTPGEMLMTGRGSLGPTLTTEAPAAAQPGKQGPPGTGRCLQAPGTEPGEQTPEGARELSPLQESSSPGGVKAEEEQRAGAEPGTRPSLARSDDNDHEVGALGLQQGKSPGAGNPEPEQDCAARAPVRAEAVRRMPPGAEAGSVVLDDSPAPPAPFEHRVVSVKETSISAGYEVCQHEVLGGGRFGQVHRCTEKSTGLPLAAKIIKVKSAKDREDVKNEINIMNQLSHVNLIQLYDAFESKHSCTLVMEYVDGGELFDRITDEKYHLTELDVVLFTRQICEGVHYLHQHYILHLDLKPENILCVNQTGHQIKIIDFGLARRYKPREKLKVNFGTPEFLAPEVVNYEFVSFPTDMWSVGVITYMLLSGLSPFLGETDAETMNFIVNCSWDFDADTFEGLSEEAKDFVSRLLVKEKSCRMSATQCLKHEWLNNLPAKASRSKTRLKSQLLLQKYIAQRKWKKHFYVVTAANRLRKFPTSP
Put plainly: Selectivity interaction (ProQinase) EUB0000171b MYLK3.

Assay [17] deals with RAF proto-oncogene serine/threonine-protein kinase (Homo sapiens) (UniProt P04049). Put plainly: Selectivity interaction (KinomeScan (DiscoverX)) EUB0000092b RAF1. To be noted: at 10 µM.
RAF proto-oncogene serine/threonine-protein kinase (Homo sapiens), sequence (P04049 whole entry): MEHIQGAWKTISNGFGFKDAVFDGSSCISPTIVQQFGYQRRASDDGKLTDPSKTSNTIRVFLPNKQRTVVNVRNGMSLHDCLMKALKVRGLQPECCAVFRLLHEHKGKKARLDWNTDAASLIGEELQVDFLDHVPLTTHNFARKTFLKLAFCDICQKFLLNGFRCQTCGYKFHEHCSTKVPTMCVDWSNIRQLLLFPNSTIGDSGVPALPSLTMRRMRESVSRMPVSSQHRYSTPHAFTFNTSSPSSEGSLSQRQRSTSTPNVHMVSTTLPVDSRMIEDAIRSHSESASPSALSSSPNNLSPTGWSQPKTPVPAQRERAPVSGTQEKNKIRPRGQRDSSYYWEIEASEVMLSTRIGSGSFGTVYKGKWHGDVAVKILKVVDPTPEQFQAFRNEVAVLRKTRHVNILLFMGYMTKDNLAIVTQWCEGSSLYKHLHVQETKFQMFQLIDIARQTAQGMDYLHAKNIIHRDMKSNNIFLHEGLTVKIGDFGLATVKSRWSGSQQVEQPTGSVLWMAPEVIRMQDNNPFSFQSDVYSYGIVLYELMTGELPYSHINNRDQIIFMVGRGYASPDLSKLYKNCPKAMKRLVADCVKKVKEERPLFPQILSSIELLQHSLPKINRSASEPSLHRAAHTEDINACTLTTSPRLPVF
Assay [18] has as its target T2, Serine/threonine-protein kinase BRSK2 (Homo sapiens) (UniProt Q8IWQ3).
T2 sequence (whole entry): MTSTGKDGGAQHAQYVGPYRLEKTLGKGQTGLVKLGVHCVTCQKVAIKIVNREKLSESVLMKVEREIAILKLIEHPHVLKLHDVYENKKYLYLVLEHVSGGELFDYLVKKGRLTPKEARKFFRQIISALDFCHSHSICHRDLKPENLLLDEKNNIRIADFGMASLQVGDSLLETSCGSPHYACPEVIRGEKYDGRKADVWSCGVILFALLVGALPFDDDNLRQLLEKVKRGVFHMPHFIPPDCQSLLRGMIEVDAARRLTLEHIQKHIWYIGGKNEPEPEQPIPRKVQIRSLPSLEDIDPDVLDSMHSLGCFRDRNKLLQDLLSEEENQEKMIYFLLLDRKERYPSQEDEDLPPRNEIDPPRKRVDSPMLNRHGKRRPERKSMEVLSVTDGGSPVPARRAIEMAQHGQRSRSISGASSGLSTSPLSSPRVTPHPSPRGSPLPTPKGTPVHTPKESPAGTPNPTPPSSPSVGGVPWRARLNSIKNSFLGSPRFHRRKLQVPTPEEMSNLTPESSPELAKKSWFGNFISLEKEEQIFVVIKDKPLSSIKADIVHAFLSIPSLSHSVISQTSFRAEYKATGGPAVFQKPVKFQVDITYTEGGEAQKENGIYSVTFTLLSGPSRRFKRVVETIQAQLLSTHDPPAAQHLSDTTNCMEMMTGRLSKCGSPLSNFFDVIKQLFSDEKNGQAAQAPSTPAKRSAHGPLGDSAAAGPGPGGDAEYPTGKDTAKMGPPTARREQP
As to the kind of experiment: Selectivity interaction (KinomeScan (DiscoverX)) EUB0000618a BRSK2. Conditions: at 10 µM.

Assay [19] concerns the target Activated CDC42 kinase 1 (Homo sapiens, UniProt Q07912). As to the kind of experiment: Selectivity interaction (KinomeScan (DiscoverX)) EUB0000618a TNK2. To be noted: at 10 µM.

Casein kinase II subunit alpha, sequence (P68400 whole entry, looked up): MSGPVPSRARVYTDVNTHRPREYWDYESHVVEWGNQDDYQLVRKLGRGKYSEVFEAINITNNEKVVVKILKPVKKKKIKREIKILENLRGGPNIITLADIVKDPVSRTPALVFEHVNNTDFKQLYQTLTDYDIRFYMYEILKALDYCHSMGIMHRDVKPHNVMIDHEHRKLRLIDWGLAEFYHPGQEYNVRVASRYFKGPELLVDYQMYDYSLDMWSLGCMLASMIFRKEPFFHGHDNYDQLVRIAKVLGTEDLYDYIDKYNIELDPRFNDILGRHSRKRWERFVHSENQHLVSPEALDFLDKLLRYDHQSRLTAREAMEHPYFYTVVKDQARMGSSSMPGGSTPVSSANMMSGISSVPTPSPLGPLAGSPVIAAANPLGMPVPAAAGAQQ
Ribosomal protein S6 kinase alpha-3, sequence (P51812 whole entry): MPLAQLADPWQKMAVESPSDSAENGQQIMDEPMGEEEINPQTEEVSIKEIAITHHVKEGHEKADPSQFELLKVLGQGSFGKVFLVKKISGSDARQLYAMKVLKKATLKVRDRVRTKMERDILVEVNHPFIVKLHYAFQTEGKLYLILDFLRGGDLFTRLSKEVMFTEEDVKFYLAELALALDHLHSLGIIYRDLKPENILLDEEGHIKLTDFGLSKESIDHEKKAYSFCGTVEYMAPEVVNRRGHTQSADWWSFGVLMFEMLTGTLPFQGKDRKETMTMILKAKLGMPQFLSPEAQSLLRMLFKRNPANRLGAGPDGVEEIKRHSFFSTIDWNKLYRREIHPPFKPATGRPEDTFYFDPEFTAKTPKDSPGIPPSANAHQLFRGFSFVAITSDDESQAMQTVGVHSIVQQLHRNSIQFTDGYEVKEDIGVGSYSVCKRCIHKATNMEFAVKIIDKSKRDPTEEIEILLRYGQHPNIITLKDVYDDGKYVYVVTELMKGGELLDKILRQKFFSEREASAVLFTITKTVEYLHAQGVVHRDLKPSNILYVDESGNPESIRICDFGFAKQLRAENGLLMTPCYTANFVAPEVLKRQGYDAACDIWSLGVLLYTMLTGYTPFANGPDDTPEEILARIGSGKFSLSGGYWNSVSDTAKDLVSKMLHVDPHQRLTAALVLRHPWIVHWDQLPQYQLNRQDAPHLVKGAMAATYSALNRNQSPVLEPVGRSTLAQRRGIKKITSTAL
Tyrosine-protein kinase JAK1, sequence (P23458 whole entry): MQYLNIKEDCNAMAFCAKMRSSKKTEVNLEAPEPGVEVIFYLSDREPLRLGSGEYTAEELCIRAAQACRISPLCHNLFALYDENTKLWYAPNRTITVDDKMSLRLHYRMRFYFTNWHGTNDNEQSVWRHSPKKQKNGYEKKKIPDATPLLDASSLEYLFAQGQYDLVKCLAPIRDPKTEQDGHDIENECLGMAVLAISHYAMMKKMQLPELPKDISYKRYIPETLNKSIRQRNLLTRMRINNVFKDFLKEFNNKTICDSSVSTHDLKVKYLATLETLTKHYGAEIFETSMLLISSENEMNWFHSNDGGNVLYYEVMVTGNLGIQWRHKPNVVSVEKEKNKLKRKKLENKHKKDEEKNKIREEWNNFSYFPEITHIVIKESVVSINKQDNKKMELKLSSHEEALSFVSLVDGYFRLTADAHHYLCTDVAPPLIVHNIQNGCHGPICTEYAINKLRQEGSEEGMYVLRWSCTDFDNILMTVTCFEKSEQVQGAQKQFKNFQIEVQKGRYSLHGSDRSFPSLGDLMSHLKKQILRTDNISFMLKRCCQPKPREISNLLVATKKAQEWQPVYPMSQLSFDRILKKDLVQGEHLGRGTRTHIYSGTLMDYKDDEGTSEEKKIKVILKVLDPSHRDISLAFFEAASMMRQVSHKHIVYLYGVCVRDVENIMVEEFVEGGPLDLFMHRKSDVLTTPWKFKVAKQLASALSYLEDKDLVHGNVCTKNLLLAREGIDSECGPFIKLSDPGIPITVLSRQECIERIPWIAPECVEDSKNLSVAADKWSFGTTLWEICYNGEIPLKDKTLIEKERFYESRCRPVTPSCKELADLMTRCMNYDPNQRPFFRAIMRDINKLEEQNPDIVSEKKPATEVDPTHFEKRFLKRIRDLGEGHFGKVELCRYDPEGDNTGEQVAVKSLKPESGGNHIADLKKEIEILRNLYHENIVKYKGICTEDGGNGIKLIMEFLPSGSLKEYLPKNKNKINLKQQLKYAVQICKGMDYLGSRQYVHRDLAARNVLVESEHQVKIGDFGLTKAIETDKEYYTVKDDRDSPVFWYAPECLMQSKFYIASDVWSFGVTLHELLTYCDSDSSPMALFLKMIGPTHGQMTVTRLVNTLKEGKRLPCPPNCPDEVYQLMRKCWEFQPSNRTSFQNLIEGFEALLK
STE20-like serine/threonine-protein kinase, sequence (Q9H2G2 whole entry, looked up): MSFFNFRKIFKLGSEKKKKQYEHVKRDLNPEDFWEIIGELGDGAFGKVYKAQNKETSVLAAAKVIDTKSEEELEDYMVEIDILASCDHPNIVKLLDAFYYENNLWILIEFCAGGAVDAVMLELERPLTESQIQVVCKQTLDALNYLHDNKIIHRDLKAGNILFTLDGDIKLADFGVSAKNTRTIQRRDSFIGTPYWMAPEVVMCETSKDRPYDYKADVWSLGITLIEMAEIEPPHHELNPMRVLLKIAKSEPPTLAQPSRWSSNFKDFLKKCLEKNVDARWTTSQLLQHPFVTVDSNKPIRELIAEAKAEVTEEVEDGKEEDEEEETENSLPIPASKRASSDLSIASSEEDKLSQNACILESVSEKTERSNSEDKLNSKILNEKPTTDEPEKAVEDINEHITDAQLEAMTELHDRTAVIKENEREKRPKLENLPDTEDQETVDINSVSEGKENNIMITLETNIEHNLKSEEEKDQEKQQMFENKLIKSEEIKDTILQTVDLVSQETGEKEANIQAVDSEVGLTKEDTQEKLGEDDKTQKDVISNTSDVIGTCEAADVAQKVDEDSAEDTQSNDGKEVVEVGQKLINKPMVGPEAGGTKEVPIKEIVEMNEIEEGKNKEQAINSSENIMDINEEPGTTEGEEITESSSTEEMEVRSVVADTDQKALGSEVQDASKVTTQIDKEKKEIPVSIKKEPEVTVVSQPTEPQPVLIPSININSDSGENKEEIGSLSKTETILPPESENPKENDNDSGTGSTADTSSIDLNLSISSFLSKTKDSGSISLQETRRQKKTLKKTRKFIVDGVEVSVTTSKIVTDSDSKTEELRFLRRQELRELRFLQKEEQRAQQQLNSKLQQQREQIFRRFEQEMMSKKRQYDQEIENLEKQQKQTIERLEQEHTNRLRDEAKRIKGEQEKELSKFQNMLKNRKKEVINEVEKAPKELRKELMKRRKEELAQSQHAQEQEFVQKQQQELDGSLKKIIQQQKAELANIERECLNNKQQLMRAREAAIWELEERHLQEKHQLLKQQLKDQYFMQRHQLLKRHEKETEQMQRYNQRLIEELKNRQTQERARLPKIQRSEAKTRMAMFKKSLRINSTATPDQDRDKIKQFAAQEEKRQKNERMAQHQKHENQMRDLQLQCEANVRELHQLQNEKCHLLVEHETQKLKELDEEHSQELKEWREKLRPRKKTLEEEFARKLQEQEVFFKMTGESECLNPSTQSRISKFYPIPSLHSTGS
Ribosomal protein S6 kinase alpha-1, sequence (Q15418 whole entry): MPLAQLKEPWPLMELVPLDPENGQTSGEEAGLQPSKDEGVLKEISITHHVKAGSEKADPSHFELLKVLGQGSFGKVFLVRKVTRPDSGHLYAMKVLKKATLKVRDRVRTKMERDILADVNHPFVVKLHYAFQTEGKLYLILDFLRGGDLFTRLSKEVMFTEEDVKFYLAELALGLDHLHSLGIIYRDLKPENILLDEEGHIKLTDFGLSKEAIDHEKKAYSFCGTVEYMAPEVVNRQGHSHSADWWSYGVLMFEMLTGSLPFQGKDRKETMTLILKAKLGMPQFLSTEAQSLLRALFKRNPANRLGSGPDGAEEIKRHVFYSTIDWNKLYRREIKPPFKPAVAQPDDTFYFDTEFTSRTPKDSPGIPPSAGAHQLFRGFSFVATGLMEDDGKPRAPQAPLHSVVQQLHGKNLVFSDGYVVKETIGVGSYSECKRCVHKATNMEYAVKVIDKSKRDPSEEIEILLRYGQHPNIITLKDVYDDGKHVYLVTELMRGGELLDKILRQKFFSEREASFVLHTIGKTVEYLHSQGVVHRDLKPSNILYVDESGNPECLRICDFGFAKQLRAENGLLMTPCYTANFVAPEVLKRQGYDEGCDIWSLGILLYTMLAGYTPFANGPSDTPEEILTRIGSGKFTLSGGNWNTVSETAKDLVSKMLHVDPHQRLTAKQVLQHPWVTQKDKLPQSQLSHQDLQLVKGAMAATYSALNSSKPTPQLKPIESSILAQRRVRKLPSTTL

On to `Cn1cc(-n2cnc3c(NCc4nc5cc(Cl)c(Cl)cc5[nH]4)nc(N4CCOCC4)nc32)cn1`, for which the % of inhibition was -10.1% in assay [1], -3.27% in [2], -18.3% in assay [3] and -59.8% in [4].
With `C=CC(=O)Nc1ccc(C(=O)Nc2[nH]nc3c2CN(C(=O)N[C@H](CN(C)C)c2ccccc2)C3(C)C)cc1`, in [5], the % of engagement was -4.8%.
Consider `CNC(=O)Nc1ccc(-c2nc(N3CC4CCC(C3)O4)c3cnn(C4CCC5(CC4)OCCO5)c3n2)cc1`, for which the results for the % of control in assay [6] and in assay [7] were 52% and 100%, respectively. Moreover, in assay [8], the % of inhibition turned out to be 5%.
Turning to `Cc1cc([C@@H](C)Nc2ccccc2C(=O)O)c2nc(N3CCOCC3)cc(=O)n2c1` [AZD-6482], the % of control in assay [9] was 100%.
As for `COc1cc(N(C)c2ccnc3ccc(C(F)(F)F)cc23)cc(OC)c1OC`, the % binding in assay [10] turned out to be 100%.
Molecule `Nc1cnc(N2CCc3cc(S(=O)(=O)Nc4c(F)cc(Cl)cc4F)cc(N4CCCC4=O)c32)nc1` [TP-020n] yielded a % of control in assay [11] of 100%.
As for `N#Cc1cccc(-c2c[nH]c3ncnc(N4CCOCC4)c23)c1`, the % of inhibition in [12] was determined as 54%.
For the molecule `CN1Cc2nccc(-c3cn(C)nc3-c3ccc(F)cc3)c2C1=O`, the % of inhibition in assay [13] was 0%.
With `CC[C@@H]1[C@H](F)C(=O)N[C@@H]1COc1nccc2cc(C(N)=O)c(OC)cc12` [ZIMLOVISERTIB], the % of inhibition in assay [14] was found to be 3.9%.
`CC(=O)Nc1cccc(-n2c(=O)n(C3CC3)c(=O)c3c(Nc4ccc(I)cc4F)n(C)c(=O)c(C)c32)c1` had a % of control in assay [15] of 101%.
As to `C=CC(=O)Nc1cccc(C(=O)Nc2ccc(Nc3cc(-c4[nH]c(SC)nc4C)ccn3)cc2)c1`, the % of control was found to be 89% in assay [16] (at 1 µM) and 68% in assay [16] (at 5 µM).
In assay [17], `CCC(=O)N1CCN(c2ccc(-n3c(=O)ccc4cnc5ccc(-c6cnc7ccccc7c6)cc5c43)cc2C(F)(F)F)CC1` showed a % of control of 48%.
For the molecule `O[C@H]1CC[C@H](Nc2ncc3nc(Nc4c(F)cc(F)cc4F)n([C@H]4CCOC4)c3n2)CC1`, the % of control in assay [18] came out at 99%; in [19] it was 100%.
